Experimental data as given in PubChem BioAssay (NCI).
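Grown in 96-well plates, cells were treated for 48 hours with each compound at five concentrations. Insufficient inhibition: endpoint recorded as highest concentration tested. TGI marks complete inhibition of growth.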

How the values were obtained:
Assay in all cases: NCI tumour cell line growth inhibition, 48 h
[1] = tested on: MDA-MB-435
[2] = tested on: CCRF-CEM leukemia
[3] = tested on: A498 renal
[4] = tested on: KM12 colon
[5] = tested on: NCI-H522 lung
[6] = tested on: U251 CNS
[7] = tested on: OVCAR-4 ovarian
[8] = tested on: CAKI-1 renal
[9] = tested on: TK-10 renal
[10] = tested on: SN12C renal
[11] = tested on: RPMI-8226 leukemia
[12] = tested on: LOX IMVI melanoma
[13] = tested on: OVCAR-8 ovarian
[14] = tested on: MCF7 breast
[15] = tested on: UO-31 renal
[16] = tested on: SK-MEL-2 melanoma
[17] = tested on: SNB-19 CNS
[18] = tested on: A549 NSCLC
[19] = tested on: NCI-H460 lung
[20] = tested on: SK-OV-3 ovarian
[21] = tested on: HCT-116 colon
[22] = tested on: MDA-MB-231 breast
[23] = tested on: NCI/ADR-RES ovarian
[24] = tested on: UACC-62 melanoma
[25] = tested on: IGROV1 ovarian
[26] = tested on: 786-0 renal
[27] = tested on: SF-268 CNS
[28] = tested on: HCC-2998 colon
[29] = tested on: OVCAR-5 ovarian
[30] = tested on: M14 melanoma
[31] = tested on: HT29 colon
[32] = tested on: SK-MEL-28 melanoma
[33] = tested on: SK-MEL-5 melanoma
[34] = tested on: SR leukemia
[35] = tested on: EKVX NSCLC
[36] = tested on: MDA-N
[37] = tested on: SNB-75 CNS
[38] = tested on: MOLT-4 leukemia
[39] = tested on: HCT-15 colon
[40] = tested on: COLO 205 colon
[41] = tested on: HOP-62 NSCLC
[42] = tested on: NCI-H226 lung
[43] = tested on: DU-145 prostate
[44] = tested on: HS 578T breast
[45] = tested on: RXF 393 renal
[46] = tested on: SW-620 colon
[47] = tested on: BT-549 breast
[48] = tested on: K-562 leukemia
[49] = tested on: PC-3 prostate
[50] = tested on: ACHN renal
[51] = tested on: MALME-3M melanoma
[52] = tested on: SF-295 CNS
[53] = tested on: UACC-257 melanoma
[54] = tested on: OVCAR-3 ovarian
[55] = tested on: T-47D breast
[56] = tested on: HOP-92 NSCLC
[57] = tested on: NCI-H23 lung
[58] = tested on: SF-539 CNS

Work on `NNC1=Nc2ccc(Cl)cc2C(=S)N2CSCC12` (centres undefined) yielded a TGI [1] of over 100 µM, a TGI [2] of over 100 µM and a TGI [3] of over 100 µM. It also gave a TGI [4] of over 100 µM, a TGI [5] of over 100 µM and a TGI [6] of over 100 µM. It also gave a TGI [7] of over 100 µM, a TGI [8] of over 100 µM and a TGI [9] of over 100 µM. It also gave a TGI [10] of over 100 µM, a TGI [11] of over 100 µM and a TGI [12] of over 100 µM. It also gave a TGI [13] of over 100 µM, a TGI [14] of over 100 µM and a TGI [15] of over 100 µM. For the same molecule, the TGI [16] was over 100 µM, the TGI [17] was over 100 µM and the TGI [18] was over 100 µM. For the same molecule, the TGI [19] was over 100 µM, the TGI [20] was over 100 µM and the TGI [21] was over 100 µM. For the same molecule, the TGI [22] was over 100 µM, the TGI [23] was over 100 µM and the TGI [24] was over 100 µM. The TGI [25] was over 100 µM, the TGI [26] was over 100 µM and the TGI [27] was over 100 µM. The TGI [28] was over 100 µM, the TGI [29] was over 100 µM and the TGI [30] was over 100 µM. The TGI [31] was over 100 µM, the TGI [32] was over 100 µM and the TGI [33] was over 100 µM. For the same molecule, the TGI [34] was over 100 µM, the TGI [35] was over 100 µM and the TGI [36] was over 100 µM. For the same molecule, the TGI [37] was over 100 µM, the TGI [38] was over 100 µM and the TGI [39] was over 100 µM. It also gave a TGI [40] of over 100 µM, a TGI [41] of over 100 µM and a TGI [42] of over 100 µM. For the same molecule, the TGI [43] was over 100 µM, the TGI [44] was over 100 µM and the TGI [45] was over 100 µM. The TGI [46] was over 100 µM, the TGI [47] was over 100 µM and the TGI [48] was over 100 µM. For the same molecule, the TGI [49] was over 100 µM, the TGI [50] was over 100 µM and the TGI [51] was over 100 µM. The TGI [52] was over 100 µM, the TGI [53] was over 100 µM and the TGI [54] was over 100 µM. For the same molecule, the TGI [55] was over 100 µM.
`c1csc(-c2cc(-c3ccsc3)c(-c3ccsc3)s2)c1` gave a TGI [1] of over 100 µM, a TGI [2] of over 100 µM and a TGI [3] of over 100 µM. The TGI [4] was over 100 µM, the TGI [56] was over 100 µM and the TGI [5] was over 100 µM. The TGI [6] was over 100 µM, the TGI [7] was over 100 µM and the TGI [8] was over 100 µM. The TGI [9] was over 100 µM, the TGI [10] was over 100 µM and the TGI [57] was over 100 µM. It also gave a TGI [58] of over 100 µM, a TGI [13] of over 100 µM and a TGI [14] of over 100 µM. The TGI [15] was over 100 µM, the TGI [17] was over 100 µM and the TGI [18] was over 100 µM. For the same molecule, the TGI [19] was over 100 µM, the TGI [20] was over 100 µM and the TGI [21] was over 100 µM. For the same molecule, the TGI [22] was over 100 µM, the TGI [23] was over 100 µM and the TGI [24] was over 100 µM. It also gave a TGI [25] of over 100 µM, a TGI [26] of over 100 µM and a TGI [27] of over 100 µM. It also gave a TGI [28] of over 100 µM, a TGI [29] of over 100 µM and a TGI [30] of over 100 µM. It also gave a TGI [31] of over 100 µM, a TGI [32] of over 100 µM and a TGI [33] of over 100 µM. The TGI [34] was over 100 µM, the TGI [35] was 90.8 µM and the TGI [36] was over 100 µM. For the same molecule, the TGI [37] was over 100 µM, the TGI [38] was over 100 µM and the TGI [39] was over 100 µM. For the same molecule, the TGI [40] was over 100 µM, the TGI [41] was over 100 µM and the TGI [43] was over 100 µM. The TGI [44] was over 100 µM, the TGI [45] was over 100 µM and the TGI [46] was over 100 µM. It also gave a TGI [47] of over 100 µM, a TGI [48] of over 100 µM and a TGI [49] of over 100 µM. The TGI [50] was over 100 µM, the TGI [51] was over 100 µM and the TGI [52] was over 100 µM. It also gave a TGI [53] of over 100 µM, a TGI [54] of over 100 µM and a TGI [55] of 54.2 µM.
